The results in this text go back to patent US20080306040A1, “Antibacterial amide macrocycles VII” (priority 2005, published 2008).

One test has as its system S. aureus T17. Description: Minimum inhibitory concentration (MIC), biphenomycin-resistant S. aureus T17. The format is cell-based. The settings on record: for MIC: Staphylococcus aureus, T17. The procedure:
(§1) Determination of the Minimum Inhibitory Concentration (MIC)
(§2) The minimum inhibitory concentration (MIC) is the minimum concentration of an antibiotic with which the growth of a test microbe is inhibited over 18-24 h. The inhibitor concentration can thereby be determined by standard microbiological methods (see, for example, The National Committee for Clinical Laboratory Standards. Methods for dilution antimicrobial susceptibility tests for bacteria that grow aerobically; approved standard-fifth edition. NCCLS document M7-A5 [ISBN 1-56238-394-9]. NCCLS, 940 West Valley Road, Suite 1400, Wayne, Pa. 19087-1898 USA, 2000). The MIC of the compounds of the invention is determined in the liquid dilution test on the 96-well microtiter plate scale. The bacterial microbes are cultivated in a minimal medium (18.5 mM Na2HPO4, 5.7 mM KH2PO4, 9.3 mM NH4Cl, 2.8 mM MgSO4, 17.1 mM NaCl, 0.033 μg/ml of thiamine hydrochloride, 1.2 μg/ml of nicotinic acid, 0.003 μg/ml of biotin, 1% glucose, 25 μg/ml of each proteinogenic amino acid with the exception of phenylalanine; [H.-P. Kroll; unpublished]) with addition of 0.4% BH broth (test medium). In the case of Enterococcus faecium L4001, heat-inactivated fetal calf serum (FCS; GibcoBRL, Germany) is added to the test medium in a final concentration of 10%. Overnight cultures of the test microbes are diluted to an OD578 of 0.001 (to 0.01 in the case of enterococci) in fresh test medium, and incubated 1:1 with dilutions of the test substances (1:2 dilution steps) in test medium (200 μl final volume). The cultures are incubated at 37° C. for 18-24 hours; enterococci in the presence of 5% CO2.
(§3) The lowest substance concentration in each case at which no visible bacterial growth occurs any longer is defined as the MIC.
(§4) Alternative Method for Determining the Minimum Inhibitory Concentration (MIC)
(§5) The minimum inhibitory concentration (MIC) is the minimum concentration of an antibiotic with which the growth of a test microbe is inhibited over 18-24 h. The inhibitor concentration can thereby be determined by standard microbiological methods with modified medium in an agar dilution test (see, for example, The National Committee for Clinical Laboratory Standards. Methods for dilution anti-microbial susceptibility tests for bacteria that grow aerobically; approved standard-fifth edition. NCCLS document M7-A5 [ISBN 1-56238-394-9]. NCCLS, 940 West Valley Road, Suite 1400, Wayne, Pa. 19087-1898 USA, 2000). The bacterial microbes are cultivated on 1.5% agar plates which contain 20% defibrinated horse blood. The test microbes, which are incubated overnight on Columbia blood agar plates (Becton-Dickinson), are diluted in PBS, adjusted to a microbe count of about 5×10^5 microbes/ml and placed dropwise (1-3 μl) on test plates. The test substances comprise different dilutions of the test substances (1:2 dilution steps). The cultures are incubated at 37° C. in the presence of 5% CO2 for 18-24 hours.
The lowest substance concentration in each case at which no visible bacterial growth occurs any longer is defined as the MIC and is reported in μg/ml.
The S. aureus strain T17 is isolated in vivo. CFW1 mice are infected intraperitoneally with 4×10^7 S. aureus 133 cells per mouse. 0.5 h after the infection, the animals are treated intravenously with 50 mg/kg of biphenomycin B. The kidneys are removed from the surviving animals on day 3 after the infection. […]

For a further test, the system named is S. aureus RN4220. Briefly: Spontaneous resistance rate, S. aureus RN4220. Format: cell-based. The conditions noted are these: agar plate containing 2 μg/ml of biphenomycin B (10×MIC), 37° C. overnight. The protocol:
The spontaneous resistance rates for the compounds of the invention are determined as follows: the bacterial microbes are cultivated in 30 ml of a minimal medium (18.5 mM Na2HPO4, 5.7 mM KH2PO4, 9.3 mM NH4Cl, 2.8 mM MgSO4,17.1 mM NaCl, 0.033 μg/ml of thiamine hydrochloride, 1.2 μg/ml of nicotinic acid, 0.003 μg/ml of biotin, 1% glucose, 25 μg/ml of each proteinogenic amino acid with the addition of 0.4% BH broth) at 37° C. over-night, centrifuged at 6000×g for 10 min and resuspended in 2 ml of a phosphate-buffered physiological NaCl solution (about 2×10^9 microbes/ml). […] The resulting colonies (cfu) are counted.
The S. aureus strain RN4220Bi^R is isolated in vitro. For this purpose, 100 μl portions of an S. aureus RN4220 cell suspension (about 1.2×10^8 cfu/ml) are plated out on an antibiotic-free agar plate (18.5 mM Na2HPO4, 5.7 mM KH2PO4, 9.3 mM NH4Cl, 2.8 mM MgSO4, 17.1 mM NaCl, 0.033 μg/ml of thiamine hydrochloride, 1.2 μg/ml of nicotinic acid, 0.003 μg/ml of biotin, 1% glucose, 25 μg/ml of each proteinogenic amino acid with the addition of 0.4% BH broth and 1% agarose) and on an agar plate containing 2 μg/ml of biphenomycin B (10×MIC), and incubated at 37° C. overnight. Whereas about […] cells grow on the antibiotic-free plate, about 100 colonies grow on the antibiotic-containing plate, corresponding to a resistance rate of 1×10^−5. […]

Test [1] deals with S. aureus 133 Translation. Briefly: S. aureus in vitro transcription-translation assay (firefly luciferase, S30 extract). The settings on record: 50% inhibition of the translation of firefly luciferase. The format is biochemical. From the text: In Vitro Transcription-Translation with S. aureus Extracts
Construction of an S. aureus Luciferase Reporter Plasmid
In order to construct a reporter plasmid which can be used in an in vitro transcription-translation assay from S. aureus the plasmid pBESTluc (Promega Corporation, USA) is used. The E. coli tac promoter present in this plasmid in front of the firefly luciferase is replaced with the capA1 promoter with corresponding Shine-Dalgarno sequence from S. aureus. The primers CAPF or 5′-[…]-[…]-3′ and CAPRev 5′-[…]-3′ are used for this. The primer CAPFor contains the capA1 promoter, the ribosome binding site and the 5′ region of the luciferase gene. After PCR using pBESTluc as template it is possible to isolate a PCR product which contains the firefly luciferase gene with the fused capA1 promoter. This is, after restriction with ClaI and HindIII, ligated into the vector pBESTluc which has likewise been digested with ClaI and HindIII. The resulting plasmid p1a can be replicated in E. coli and be used as template in the S. aureus in vitro transcription-translation test.
Preparation of S30 Extracts from S. aureus
Six litres of BHI medium are inoculated with a 250 ml overnight culture of an S. aureus strain and allowed to grow at 37° C. up to an OD600 nm of 2-4. The cells are harvested by centrifugation and washed in 500 ml of cold buffer A (10 mM Tris acetate, pH 8.0, 14 mM magnesium acetate, 1 mM DTT, […]). After renewed centrifugation, the cells are washed in 250 ml of cold buffer A with 50 mM KCl, and the resulting pellets are frozen at −20° C. for 60 min. The pellets are thawed on ice in 30 to 60 min and taken up to a total volume of 99 ml in buffer B (10 mM Tris acetate, pH 8.0, 20 mM magnesium acetate, 1 mM DTT, 50 mM KCl). 1.5 ml portions of lysostaphin (0.8 mg/ml) in buffer B are provided in 3 precooled centrifuge cups and each mixed with 33 ml of the cell suspension. The samples are incubated at 37° C., for 45 to 60 min shaking occasionally, before 150 μl of a 0.5 M DTT solution are added. The lysed cells are centrifuged at 30 000×g and 4° C. for 30 min. The cell pellet is taken up in buffer B and then centrifuged again under the same conditions, and the collected supernatants are combined. The supernatants are centrifuged again under the same conditions, and 0.25 volumes of buffer C (670 mM Tris acetate, pH 8.0, 20 mM magnesium acetate, 7 mM Na3 phosphoenolpyruvate, 7 mM DTT, 5.5 mM ATP, 70 μM amino acids (complete from Promega), 75 μg of pyruvate kinase (Sigma, Germany))/ml are added to the upper ⅔ of the supernatant. […]
The inhibition of protein biosynthesis of the compounds can be shown in an in vitro transcription-translation assay. […] The activity of the resulting luciferase can be detected by luminescence measurement. […]

In test [2] the test system is S. aureus 133. Description: Minimum inhibitory concentration (MIC), S. aureus 133. Format: cell-based. The procedure: as §1, §2, §3, §4
as §5, with “The test substances comprise different dilutions of the test substances (1:2 dilution steps). The cultures are incubated at 37° C. in the presence of 5% CO2 for 18-24 hours.” left out

Another test concerns S. aureus RN4220Bi^R. Briefly: MIC against biphenomycin-resistant S. aureus RN4220Bi^R. The format is cell-based. The settings on record: colony isolated in vitro from antibiotic-containing plate. The procedure: The S. aureus strain RN4220Bi^R is isolated in vitro. For this purpose, 100 μl portions of an S. aureus RN4220 cell suspension (about 1.2×10^8 cfu/ml) are plated out on an antibiotic-free agar plate (18.5 mM Na2HPO4, 5.7 mM KH2PO4, 9.3 mM NH4Cl, 2.8 mM MgSO4, 17.1 mM NaCl, 0.033 μg/ml of thiamine hydrochloride, 1.2 μg/ml of nicotinic acid, 0.003 μg/ml of biotin, 1% glucose, 25 μg/ml of each proteinogenic amino acid with the addition of 0.4% BH broth and 1% agarose) and on an agar plate containing 2 μg/ml of biphenomycin B (10×MIC), and incubated at 37° C. overnight. Whereas about […] cells grow on the antibiotic-free plate, about 100 colonies grow on the antibiotic-containing plate, corresponding to a resistance rate of 1×10^−5. Some of the colonies grown on the antibiotic-containing plate are tested for the biphenomycin B MIC. One colony with a MIC of >50 μM is selected for further use, and the strain is referred to as RN4220Bi^R.

Test [3] deals with S. aureus 133. Briefly: Systemic infection with S. aureus 133 (mouse sepsis model). The conditions noted are these: female CFW1 mice, i.p. infection, i.v. therapy 30 minutes after infection, survival over 6 days. Format: in vivo.
Where [4] appears, read: Staphylococcus aureus, 133, read-out: MIC S. aureus 133.

Each structure is given as a SMILES string. Where a name gives a salt, the structure may show the parent alone. Read-outs that look alike come from different tables or passages of the source.

In general, IC50 refers to the concentration at which inhibition is half-maximal. High values mean weaker potency in that assay, low ones greater potency in that assay. In the case of `NC[C@H](O)C[C@@H]1NC(=O)[C@@H](N)Cc2cc(ccc2O)-c2ccc(O)c(c2)C[C@@H](C(=O)O)NC1=O` [Biphenomycin B, biphenomycin B, reference compound], in the test with S. aureus T17 (biphenomycin-resistant strain), the “MIC S. aureus T17” value was >32 µg/mL. For the same molecule, in the test on S. aureus T17 (colony isolated in vivo from kidney of treated mice), the “MIC of selected colony (strain T17)” value was > 50 µM. In addition, in the test on S. aureus RN4220, the resistance rate is recorded as 1×10^−5. For the same molecule, it took 1500 nM to reach half-maximal inhibition in test [1] (IC50). In the test on S. aureus 133 [2], the “MIC S. aureus 133” value is <0.03 µg/mL. Moreover, the “MIC of selected colony (strain RN4220Bi^R)” value in the test on S. aureus RN4220Bi^R is > 50 µM.

Broadly, the MIC is the least concentration at which growth counts as inhibited. Turning to `NCCC[C@H](N)CNC(=O)C[C@H](CCCN)NC(=O)C[C@@H]1Cc2cccc(c2)-c2ccc(O)c(c2)C[C@H](N)C(=O)N[C@@H](CCCN)C(=O)N1` [Example 1, (3S)-6-Amino-3-({[(8S11,S14S)-14-amino-11-(3-aminopropyl)-17-hydroxy-10,13-dioxo-9,12-diazatricyclo[14.3.1.1^2,6]henicosa-1(20),2(21),3,5,16,18-hexaen-8-yl]acetyl{amino)-N-[(2S)-2,5-diaminopentyl]hexanamidepentahydrochloride], the MIC came to 2 µg/mL against S. aureus T17 (biphenomycin-resistant strain) and 2 µg/mL in the test with S. aureus 133 [2] (Staphylococcus aureus, 133; read-out: MIC S. aureus 133). Also, half-maximal inhibition in test [1] (IC50) was put at 350 nM.

On to `NCCC[C@H](NC(=O)C[C@@H]1Cc2cccc(c2)-c2ccc(O)c(c2)C[C@H](N)C(=O)N[C@@H](CCCN)C(=O)N1)C(=O)NCCN` [Example 2, N^2-{[(8S,11S,14S)-14-Amino-11-(3-aminopropyl)-17-hydroxy-10,13-dioxo-9,12-diazatricyclo[14.3.1.1^2,6]henicosa-1(20), 2(21),3,5,5,16,18-hexaen-8-yl]acetyl}-N-(2-aminoethyl)-L-ornithinamide tetrahydrochloride], for which the “therapeutic activity ED100” value in the test with S. aureus 133 [3] was 1.25 mg/kg.

As to `NCCC[C@H](N)CNC(=O)C[C@@H]1Cc2cccc(c2)-c2ccc(O)c(c2)C[C@H](N)C(=O)N[C@@H](CCCN)C(=O)N1` [Example 5, 2-[(8S,11S,14S)-14-Amino-11-(3-aminopropyl)-17-hydroxy-10,13-dioxo-9,12-diazatricyclo[14.3.1.1^2,6]henicosa-1(20),2(21),3,5,16,18-hexaen-8-yl]-N-[(2S)-2,5-diaminopentyl]acetamide tetrahydrochloride], the MIC in the test on S. aureus T17 (biphenomycin-resistant strain) and in the test on S. aureus 133 [2] (setting [4]) was 2 µg/mL in each case. This molecule came in with an IC50 in test [1] of 700 nM.

Consider `NCCC[C@H](N)CNC(=O)C[C@@H](N)CCCNC(=O)[C@H](CCCN)NC(=O)C[C@@H]1Cc2cccc(c2)-c2ccc(O)c(c2)C[C@H](N)C(=O)N[C@@H](CCCN)C(=O)N1` [Example 7, (3S)-3-Amino-6-[(N^2-{[(8S,11S,14S)-14-amino-11-(3-aminopropyl)-17-hydroxy-10,13-dioxo-9,12-diazatricyclo[14.3.1.1^2,6]henicosa-1(20), 2(21), 3,5,16,18-hexaen-8-yl]acetyl}-L-ornithyl)amino]-N-[(2S)-2,5-diaminopentyl]hexanamide hexahydrochloride], for which the MIC in the test on S. aureus T17 (biphenomycin-resistant strain) and in the test with S. aureus 133 [2] (setting [4]) was 2 µg/mL throughout. This molecule also gave an IC50 in test [1] of 200 nM.
